Laboratory results as given in US20190000829A1, “THERAPEUTIC AGENT FOR BILIARY TRACT CANCER” (Eisai R&D Management Co., Ltd., priority 2015, published 2019).

What was measured:
[1] = system: human extrahepatic cholangiocarcinoma cell line (TFK-1 cell line); experiment: Tumor growth-inhibitory effect in model subcutaneously transplanted with human extrahepatic cholangiocarcinoma cell line (TFK-1); type: in vivo; details: TFK-1 subcutaneous xenograft, nude mice; mesylate of compound A 1, 3, 10, 30, 100 mg/kg orally once a day for 14 days
Description: An antitumor effect produced by administration of compound A was evaluated with six nude mice in each group (CAnN.Cg-Foxn1^nu/CrlCrlj, female, Charles River Laboratories Japan, Inc.). The human-derived extrahepatic cholangiocarcinoma TFK-1 cell lines (Riken BioResource Center) were suspended in RPMI1640 medium (Wako Pure Chemical Industries, Ltd., supplemented with 10% FBS) at a concentration of 2×10^8 cells/mL and were mixed well. The cell suspension was further mixed with an equal amount of Matrigel basement membrane matrix (Corning Incorporated) to prepare a cell suspension at 1×10^8 cells/mL, and aliquots of 0.1 mL were subcutaneously transplanted into the right flank of each mouse. Seven days after transplantation, the longest diameter and the short axis of the tumors were measured by an electronic digital caliper (ABS Digimatic Caliper, Mitutoyo Corporation). The mice were divided into groups so that the average of tumor volumes of each group became approximately equal. In this regard, the tumor volume was calculated according to the following formula.
(§1) Tumor volume (mm^3)=longest diameter (mm)×short axis (mm)×short axis (mm)/2 […]
(§2) The tumor volume was measured on the day when the administration was started (Day 1), Day 4, Day 8, and Day 11, and the day following the last day of administration (Day 15). […]

[2] = system: human cholangiocarcinoma cell line (OZ cell line); experiment: Tumor growth-inhibitory effect in model subcutaneously transplanted with human cholangiocarcinoma cell line (OZ); type: in vivo; details: OZ subcutaneous xenograft, nude mice; mesylate of compound A 1, 3, 10, 30, 100 mg/kg orally once a day for 14 days
Description: An antitumor effect produced by administration of compound A was evaluated with five nude mice in each group (CAnN.Cg-Foxn1^nu/CrlCrlj, female, Charles River Laboratories Japan, Inc.). The human-derived cholangiocarcinoma OZ cell lines (JCRB Cell Bank) were suspended in Williams'E (Sigma-Aldrich Corporation, supplemented with 2 mmol/L L-glutamine and 10% FBS) at a concentration of 2×10^8 cells/mL and were mixed well. The cell suspension was further mixed with an equal amount of Matrigel basement membrane matrix (Corning Incorporated) to prepare a cell suspension at 1×10^8 cells/mL, and aliquots of 0.1 mL were subcutaneously transplanted into the right flank of each mouse. Thirteen days after transplantation, the longest diameter and the short axis of the tumors were measured by an electronic digital caliper (ABS Digimatic Caliper, Mitutoyo Corporation). The mice were divided into groups so that the average of tumor volumes of each group became approximately equal. In this regard, the tumor volume was calculated according to the following formula.
as §1
The tumor volume was measured on the day when the administration was started (Day 1), Day 5, Day 8, and Day 12, and the clay following the last day of administration (Day 15). […]

[3] = system: human carcinoma of the ampulla of Vater cell line (SNU-869 cell line); experiment: Tumor growth-inhibitory effect in model subcutaneously transplanted with human carcinoma of the ampulla of Vater cell line (SNU-869); type: in vivo; details: SNU-869 subcutaneous xenograft, nude mice; mesylate of compound A 1, 3, 10, 30, 100 mg/kg orally once a day for 14 days
Description: An antitumor effect produced by administration of compound A was evaluated with six nude mice in each group (CAnN.Cg-Foxn1^nu/CrlCrlj, female, Charles River Laboratories Japan, Inc.). The human-derived human carcinoma of the ampulla of Vater SNU-869 cell lines (Creative Bioarray) were suspended in RPMI1640 medium (Wako Pure Chemical Industries, Ltd., supplemented with 25 mM HEPES and 10% FBS) at a concentration of 2×10^8 cells/mL and were mixed well. The cell suspension was further mixed with an equal amount of Matrigel basement membrane matrix (Corning Incorporated) to prepare a cell suspension at 1×10^8 cells/mL, and aliquots of 0.1 mL were subcutaneously transplanted into the right flank of each mouse. Seven days after transplantation, the longest diameter and the short axis of the tumors were measured by an electronic digital caliper (ABS Digimatic Caliper, Mitutoyo Corporation). The mice were divided into groups so that the average of tumor volumes of each group became approximately equal. In this regard, the tumor volume was calculated according to the following formula.
as §1, §2

[4] = system: unresectable biliary tract cancer; experiment: Multicenter, unblinded, phase II clinical trial in patients with unresectable biliary tract cancer after combination chemotherapy involving gemcitabine (interim analysis); type: in vivo, human
From the text: This clinical trial was a multicenter, single-group, unblinded clinical trial for patients with a prior treatment history who had received one regimen using two-drug combination chemotherapy involving gemcitabine (two-drug combination chemotherapy using gemcitabine and cisplatin, or gemcitabine and another platinum-based drug or a fluorinated pyrimidine drug) for their unresectable biliary tract cancers.
This clinical trial was composed of three periods, which were a pretreatment period, an administration period, and a follow-up period. During the pretreatment period, screening was performed within 21 days. The administration period was composed of administration of mesylate of compound A as an investigational drug in each cycle and tumor assessment performed every 6 to 8 weeks. The follow-up period was started immediately after the day when administration was discontinued and was continued while the subject was alive until withdrawal of consent by the subject or completion of the clinical trial.
The investigational drug, mesylate of compound A, was administered orally once a day in a cycle of 28 days at a dose of 24 mg in terms of compound A in free form, and administration was continued until disease progression, an unacceptable adverse event, withdrawal of consent by the subject, or the like occurred.
The primary objective of the clinical trial was to determine an objective response rate (ORR) of the investigational drug for patients with an unresectable biliary tract cancer after combination chemotherapy involving gemcitabine.
The secondary objective of the clinical trial was to determine a progression-free survival (PFS), an overall survival (OS), a disease control rate (DCR), a clinical benefit rate (CBR), adverse events (AEs), and the number of subjects who developed serious adverse events (SAEs), and a blood concentration. In this context, ORR is defined as a rate of subjects with their best overall response (BOR) being complete response (CR) or partial response (PR). […]

## COc1cc2nccc(Oc3ccc(NC(=O)NC4CC4)c(Cl)c3)c2cc1C(N)=O [compound A, 4-[3-chloro-4-(cyclopropylaminocarbonyl)aminophenoxy]-7-methoxy-6-quinolinecarboxamide]
[1]
  antitumor effect (tumor volume on Day 15 vs control): dose-dependent antitumor effect
[2]
  antitumor effect (tumor volume on Day 15 vs control): dose-dependent antitumor effect
[3]
  antitumor effect (tumor volume on Day 15 vs control): dose-dependent antitumor effect
[4]; 17 patients, mesylate of compound A orally once a day, 24 mg in terms of free form, 28-day cycles, 13 patients
  stable disease (SD, 6 weeks or more), percentage of patients: 76.5%
[4]; 17 patients, mesylate of compound A orally once a day, 24 mg in terms of free form, 28-day cycles, one patient
  partial response (PR), percentage of patients: 5.9%
[4]; among 13 SD patients, 24 mg orally once a day
  tendency for tumor regression, number of patients: 8 patients
